# Source: patent US10597388B2, “Pyridazinone herbicides” (FMC CORPORATION, priority 2014, dated 2020)
# Legend:
# Experiment in all cases: Test D controlled growth environment herbicide test, pre- and postemergence
# Format in all cases: in vivo
# [1] = tested on: speedwell (bird's-eye speedwell, Veronica persica)
# How it was run: (§1)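 Species sown in silt loam and sprayed preemergence, or grown in peat-based medium to 2–18 cm (1- to 4-leaf stage) and sprayed postemergence, with compounds in non-phytotoxic solvent plus surfactant. Visual injury scored versus controls after 14–21 d in a controlled environment, 0 (no effect) to 100 (complete control).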
# [2] = tested on: field violet (Viola arvensis)
# How it was run: as §1
# [3] = tested on: mustard, wild (wild mustard, Sinapis arvensis)
# How it was run: as §1
# [4] = tested on: canarygrass (Phalaris minor)
# How it was run: as §1
# [5] = tested on: pigweed (Amaranthus retroflexus)
# How it was run: as §1
# [6] = tested on: radish, wild (wild radish, Raphanus raphanistrum)
# How it was run: as §1
# [7] = tested on: windgrass (Apera spica-venti)
# How it was run: as §1
# [8] = tested on: galium (catchweed bedstraw, Galium aparine)
# How it was run: as §1
# [9] = tested on: bluegrass (annual bluegrass, Poa annua)
# How it was run: as §1
# [10] = tested on: Russian thistle (Salsola kali)
# How it was run: as §1
# kochia (Kochia scoparia) = tested on: kochia (Kochia scoparia)
# How it was run: as §1
# [11] = tested on: oilseed rape (Brassica napus)
# How it was run: as §1
# [12] = tested on: buckwheat, wild (wild buckwheat, Polygonum convolvulus)
# How it was run: as §1
# [13] = Postemergence, 31 g ai/ha, scale 0 to 100 (0 no effect, 100 complete control)
# [14] = Postemergence, 125 g ai/ha, visual rating on scale 0 (no effect) to 100 (complete control), 14 to 21 d
# [15] = Postemergence, 250 g ai/ha, scale 0 to 100 (0 no effect, 100 complete control)
# [16] = Preemergence, 62 g ai/ha, scale 0 to 100 (0 no effect, 100 complete control)
# [17] = Preemergence, 125 g ai/ha, scale 0 to 100 (0 no effect, 100 complete control)
# [18] = Preemergence, 250 g ai/ha, scale 0 to 100 (0 no effect, 100 complete control)
# [19] = postemergence, 62 g ai/ha, scale 0 to 100, 0 no effect, 100 complete control
compound,measurement,setting,value
Cc1ccc2ccccc2c1-c1c(O)c(C)nn(C)c1=O [Compound 59],Speedwell plant response rating,[1]; [13],65
same,"Plant response rating, Speedwell",[1]; [14],100
same,"Plant response rating, Speedwell",[1]; [15],100
same,"Plant response rating (scale of 0 to 100), Speedwell","[1]; Preemergence, 31 g ai/ha",100
same,"Plant response rating, Speedwell",[1]; [16],100
same,"Plant response rating, Speedwell",[1]; [17],100
same,"Plant response rating, Speedwell",[1]; [18],100
same,"Plant response rating, Speedwell",[1]; [19],100
same,Field Violet plant response rating,[2]; [13],75
same,"Plant response rating, Field Violet",[2]; [14],95
same,"Plant response rating, Field Violet",[2]; [15],95
same,"Plant response rating (scale of 0 to 100), Field Violet","[2]; Preemergence, 31 g ai/ha",80
same,"Plant response rating, Field Violet",[2]; [16],90
same,"Plant response rating, Field Violet",[2]; [17],95
same,"Plant response rating, Field Violet",[2]; [18],100
same,"Plant response rating, Field Violet",[2]; [19],80
same,"Mustard, Wild plant response rating",[3]; [13],90
same,"Plant response rating, Mustard, Wild",[3]; [14],100
same,"Plant response rating, Mustard, Wild",[3]; [15],100
same,"Plant response rating (scale of 0 to 100), Mustard, Wild","[3]; Preemergence, 31 g ai/ha",95
same,"Plant response rating, Mustard, Wild",[3]; [16],95
same,"Plant response rating, Mustard, Wild",[3]; [17],100
same,"Plant response rating, Mustard, Wild",[3]; [18],100
same,"Plant response rating, Mustard, Wild",[3]; [19],100
same,Canarygrass plant response rating,[4]; [13],75
same,"Plant response rating, Canarygrass",[4]; [14],90
same,"Plant response rating, Canarygrass",[4]; [15],90
same,"Plant response rating (scale of 0 to 100), Canarygrass","[4]; Preemergence, 31 g ai/ha",80
same,"Plant response rating, Canarygrass",[4]; [16],90
same,"Plant response rating, Canarygrass",[4]; [17],95
same,"Plant response rating, Canarygrass",[4]; [18],100
same,"Plant response rating, Canarygrass",[4]; [19],80
same,Pigweed plant response rating,[5]; [13],80
same,"Plant response rating, Pigweed",[5]; [14],100
same,"Plant response rating, Pigweed",[5]; [15],100
same,"Plant response rating (scale of 0 to 100), Pigweed","[5]; Preemergence, 31 g ai/ha",95
same,"Plant response rating, Pigweed",[5]; [16],100
same,"Plant response rating, Pigweed",[5]; [17],100
same,"Plant response rating, Pigweed",[5]; [18],100
same,"Plant response rating, Pigweed",[5]; [19],85
same,"Radish, Wild plant response rating",[6]; [13],95
same,"Plant response rating, Radish, Wild",[6]; [14],100
same,"Plant response rating, Radish, Wild",[6]; [15],100
same,"Plant response rating, Radish, Wild",[6]; [16],85
same,"Plant response rating, Radish, Wild",[6]; [17],95
same,"Plant response rating, Radish, Wild",[6]; [18],100
same,"Plant response rating, Radish, Wild",[6]; [19],95
same,Windgrass plant response rating,[7]; [13],75
same,"Plant response rating, Windgrass",[7]; [14],80
same,"Plant response rating, Windgrass",[7]; [15],85
same,"Plant response rating (scale of 0 to 100), Windgrass","[7]; Preemergence, 31 g ai/ha",85
same,"Plant response rating, Windgrass",[7]; [16],85
same,"Plant response rating, Windgrass",[7]; [17],100
same,"Plant response rating, Windgrass",[7]; [18],100
same,"Plant response rating, Windgrass",[7]; [19],80
same,Galium plant response rating,[8]; [13],100
same,"Plant response rating, Galium",[8]; [14],100
same,"Plant response rating, Galium",[8]; [15],100
same,"Plant response rating (scale of 0 to 100), Galium","[8]; Preemergence, 31 g ai/ha",95
same,"Plant response rating, Galium",[8]; [16],95
same,"Plant response rating, Galium",[8]; [17],100
same,"Plant response rating, Galium",[8]; [18],100
same,"Plant response rating, Galium",[8]; [19],100
same,Bluegrass plant response rating,[9]; [13],25
same,"Plant response rating, Bluegrass",[9]; [14],55
same,"Plant response rating, Bluegrass",[9]; [15],75
same,"Plant response rating (scale of 0 to 100), Bluegrass","[9]; Preemergence, 31 g ai/ha",30
same,"Plant response rating, Bluegrass",[9]; [16],50
same,"Plant response rating, Bluegrass",[9]; [17],75
same,"Plant response rating, Bluegrass",[9]; [18],80
same,"Plant response rating, Bluegrass",[9]; [19],40
same,Russian Thistle plant response rating,[10]; [13],80
same,"Plant response rating, Russian Thistle",[10]; [14],85
same,"Plant response rating, Russian Thistle",[10]; [15],85
same,"Plant response rating (scale of 0 to 100), Russian Thistle","[10]; Preemergence, 31 g ai/ha",40
same,"Plant response rating, Russian Thistle",[10]; [16],50
same,"Plant response rating, Russian Thistle",[10]; [17],80
same,"Plant response rating, Russian Thistle",[10]; [18],90
same,"Plant response rating, Russian Thistle",[10]; [19],80
same,Kochia plant response rating,kochia (Kochia scoparia); [13],95
same,"Plant response rating, Kochia",kochia (Kochia scoparia); [14],95
same,"Plant response rating, Kochia",kochia (Kochia scoparia); [15],100
same,"Plant response rating (scale of 0 to 100), Kochia","kochia (Kochia scoparia); Preemergence, 31 g ai/ha",20
same,"Plant response rating, Kochia",kochia (Kochia scoparia); [16],60
same,"Plant response rating, Kochia",kochia (Kochia scoparia); [17],95
same,"Plant response rating, Kochia",kochia (Kochia scoparia); [18],100
same,"Plant response rating, Kochia",kochia (Kochia scoparia); [19],95
same,Oilseed Rape plant response rating,[11]; [13],60
same,"Plant response rating, Oilseed Rape",[11]; [14],85
same,"Plant response rating, Oilseed Rape",[11]; [15],90
same,"Plant response rating (scale of 0 to 100), Oilseed Rape","[11]; Preemergence, 31 g ai/ha",20
same,"Plant response rating, Oilseed Rape",[11]; [16],30
same,"Plant response rating, Oilseed Rape",[11]; [17],50
same,"Plant response rating, Oilseed Rape",[11]; [18],80
same,"Plant response rating, Oilseed Rape",[11]; [19],70
same,"Buckwheat, Wild plant response rating",[12]; [13],65
same,"Plant response rating, Buckwheat, Wild",[12]; [14],100
same,"Plant response rating, Buckwheat, Wild",[12]; [15],100
same,"Plant response rating (scale of 0 to 100), Buckwheat, Wild","[12]; Preemergence, 31 g ai/ha",20
same,"Plant response rating, Buckwheat, Wild",[12]; [16],65
same,"Plant response rating, Buckwheat, Wild",[12]; [17],100
same,"Plant response rating, Buckwheat, Wild",[12]; [18],95
same,"Plant response rating, Buckwheat, Wild",[12]; [19],100
